Test results published in patent EP4722219A1 (Gan & Lee Pharmaceuticals Co., Ltd., priority 2023, dated 2024).

Tests used:
AR protein = target: T1, AR protein (Homo sapiens, UniProt P10275, T878A); assay: AR protein degradation in LNCaP cells (Western blot); type: cell-based; settings: 8 hours; for Degradation of AR protein in LNCaP cells, 10 nM (%) / percent AR protein degradation at a fixed concentration at 0.01 µM: 10 nM; for Degradation of AR protein in LNCaP cells, 100 nM (%) / percent AR protein degradation at a fixed concentration at 0.1 µM: 100 nM
T1 construct: host or cells: LNCaP FGC
T1 sequence (P10275 1-920 T878A): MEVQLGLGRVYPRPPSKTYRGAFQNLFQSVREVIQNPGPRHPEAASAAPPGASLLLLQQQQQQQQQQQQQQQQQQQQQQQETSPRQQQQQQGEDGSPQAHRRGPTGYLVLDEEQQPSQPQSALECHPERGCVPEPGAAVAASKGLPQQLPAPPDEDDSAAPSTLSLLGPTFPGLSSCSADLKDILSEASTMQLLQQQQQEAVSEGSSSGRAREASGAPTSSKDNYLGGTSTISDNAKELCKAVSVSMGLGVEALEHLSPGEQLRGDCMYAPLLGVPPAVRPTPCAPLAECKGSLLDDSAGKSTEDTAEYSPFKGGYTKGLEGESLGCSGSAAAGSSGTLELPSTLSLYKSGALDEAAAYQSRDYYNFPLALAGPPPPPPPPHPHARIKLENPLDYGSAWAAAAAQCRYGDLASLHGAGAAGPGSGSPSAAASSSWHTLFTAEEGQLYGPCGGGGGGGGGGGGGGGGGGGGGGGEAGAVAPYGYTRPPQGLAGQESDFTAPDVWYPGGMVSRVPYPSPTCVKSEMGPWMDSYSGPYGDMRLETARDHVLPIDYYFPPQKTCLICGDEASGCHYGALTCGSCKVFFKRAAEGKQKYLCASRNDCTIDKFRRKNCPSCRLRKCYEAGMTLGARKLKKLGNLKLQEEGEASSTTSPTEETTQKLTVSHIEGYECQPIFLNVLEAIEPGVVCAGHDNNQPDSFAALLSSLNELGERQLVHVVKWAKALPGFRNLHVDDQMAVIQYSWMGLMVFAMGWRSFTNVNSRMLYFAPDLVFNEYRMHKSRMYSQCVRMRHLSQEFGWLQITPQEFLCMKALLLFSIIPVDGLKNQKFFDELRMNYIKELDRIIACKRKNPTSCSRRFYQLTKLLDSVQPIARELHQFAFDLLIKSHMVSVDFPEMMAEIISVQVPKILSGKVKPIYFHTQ
Method in brief: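 LNCaP cells exposed to compound or solvent control for 8 h, lysed in RIPA, protein normalized by BCA. AR detected by SDS-PAGE/Western blot with infrared imaging; band grayscale normalized to GAPDH to calculate AR degradation rate.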

LNCaP cells = assay: Inhibition of LNCaP cell proliferation (WST-8); type: cell-based; settings: LNCaP FGC cells, 96 hours
Method in brief: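 Cells were seeded and cultured overnight at 37 °C, 5% CO2, then exposed for 96 h to compound at 9 concentrations, 5-fold serial dilution from 10 µM final. Viability was read by WST-8 absorbance at 450 nm.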

| Molecule | Degradation of AR protein in LNCaP cells, 10 nM (%) (AR protein) | Degradation of AR protein in LNCaP cells, 100 nM (%) (AR protein) | IC50 (LNCaP cells; Homo sapiens) | IC50 (LNCaP cells) | percent AR protein degradation at a fixed concentration at 0.01 µM (AR protein) | percent AR protein degradation at a fixed concentration at 0.1 µM (AR protein) |
| --- | --- | --- | --- | --- | --- | --- |
| C[C@H]1CC2(CCN(c3ccc(N4CCC(CN5CCC6(CCc7cc(C(=O)N[C@H]8CCC(=O)NC8=O)c(F)cc7O6)CC5)CC4)cc3)CC2)CN1c1ccc(C#N)c(Cl)c1 [A-P-42, 1'-((1-(4-((S)-2-(3-chloro-4-cyanophenyl)-3-methyl-2,8-diazaspiro[4.5]decan-8-yl)phenyl)piperidin-4-yl)methyl)-N-((S)-2,6-dioxopiperidin-3-yl)-7-fluorospiro[chroman-2,4'-piperidin]-6-carboxamide] | – | – | 0.19 µM | – | 44% | 77% |
| COc1cc(O[C@H]2CC[C@H](NC(=O)c3ccc(N4CCC(N5CCC6(CC5)COc5cc7c(cc56)n(C)c(=O)n7C5CCC(=O)NC5=O)CC4)nn3)CC2)ccc1C#N (stereo partly drawn) [A-P-18, N-((1r,4r)-4-(4-cyano-3-methoxyphenoxy)cyclohexyl)-6-(4-(3-(2,6-dioxopyridyl-3-yl)-1-methyl-2-oxo-2,3-dihydro-1H,6H-spiro[benzofuro[5,6-d]imidazole-7,4'-piperidin]-1'-yl)piperidin-1-yl)pyridazine-3-carboxamide] | – | – | 120 µM | – | 43% | 11% |
| N-(1r,4r)-4-(3-chloro-4-cyanophenoxy)cyclohexy 1)-6-(4-(7-(2,6-dioxopiperidin-3-yl))-6-oxo-7,8-dihydro-2H,6H-dipyrido[2,3-e]isoindole-3,1'-cyclohexane-4',4‴-piperidin]-1"-yl)pyridazine-3-carboxamide [A-P-32] | 12% | 46% | – | 0.57 µM | – | – |

Further lines, with some results ahead:

| Degradation of AR protein in LNCaP cells, 10 nM (%) (AR protein) | Degradation of AR protein in LNCaP cells, 100 nM (%) (AR protein) | IC50 (LNCaP cells; Homo sapiens) | IC50 (LNCaP cells) | Molecule | percent AR protein degradation at a fixed concentration at 0.01 µM (AR protein) | percent AR protein degradation at a fixed concentration at 0.1 µM (AR protein) |
| --- | --- | --- | --- | --- | --- | --- |
| 26% | 46% | 6.56 µM | – | COc1cc(O[C@H]2C(C)(C)[C@H](NC(=O)c3ccc(N4CCC(CN5CCC6(CCc7cc(F)c(C(=O)N[C@H]8CCC(=O)NC8=O)cc7O6)CC5)(OC)CC4)cc3)C2(C)C)ccc1C#N [A-P-40] | – | – |
| 55% | 85% | 7.22 µM | – | COc1cc(O[C@H]2C(C)(C)[C@H](NC(=O)c3ccc(N4CCC(CN5CCN6c7ccc(C(=O)N[C@H]8CCC(=O)NC8=O)cc7OC[C@@H]6C5)CC4)cc3)C2(C)C)ccc1C#N [A-P-67] | – | – |
| 41% | 78% | 1.48 µM | – | COc1cc(O[C@H]2C(C)(C)[C@H](NC(=O)c3ccc(N4CCC(CN5CCC6(CCc7cc(C(=O)N[C@H]8CCC(=O)NC8=O)c(F)cc7O6)CC5)CC4)cc3)C2(C)C)ccc1C#N [A-P-30] | – | – |
| 49% | 78% | – | 1.07 µM | COc1cc(O[C@H]2C(C)(C)[C@H](NC(=O)c3ccc(N4CCC(CN5CCN(c6ccc(C(=O)N[C@H]7CCC(=O)NC7=O)c(F)c6)CC5)CC4)cc3)C2(C)C)ccc1C#N [ARV-766, reference compound] | – | – |
